# Data: ChEMBL document CHEMBL5465560, “Selectivity Literature for EUbOPEN Chemogenomic Library” (2024)
# Key:
# Conditions in all cases: at 10 µM
# [1] = target: Cyclin-dependent kinase-like 1 (Homo sapiens) (UniProt Q00532); experiment: Selectivity interaction (KinomeScan (DiscoverX)) EUB0000092b CDKL1
# [2] = target: T1, Dual serine/threonine and tyrosine protein kinase (Homo sapiens) (UniProt Q6XUX3); experiment: Selectivity interaction (KinomeScan (DiscoverX)) EUB0000655a DSTYK
# T1 sequence (whole entry): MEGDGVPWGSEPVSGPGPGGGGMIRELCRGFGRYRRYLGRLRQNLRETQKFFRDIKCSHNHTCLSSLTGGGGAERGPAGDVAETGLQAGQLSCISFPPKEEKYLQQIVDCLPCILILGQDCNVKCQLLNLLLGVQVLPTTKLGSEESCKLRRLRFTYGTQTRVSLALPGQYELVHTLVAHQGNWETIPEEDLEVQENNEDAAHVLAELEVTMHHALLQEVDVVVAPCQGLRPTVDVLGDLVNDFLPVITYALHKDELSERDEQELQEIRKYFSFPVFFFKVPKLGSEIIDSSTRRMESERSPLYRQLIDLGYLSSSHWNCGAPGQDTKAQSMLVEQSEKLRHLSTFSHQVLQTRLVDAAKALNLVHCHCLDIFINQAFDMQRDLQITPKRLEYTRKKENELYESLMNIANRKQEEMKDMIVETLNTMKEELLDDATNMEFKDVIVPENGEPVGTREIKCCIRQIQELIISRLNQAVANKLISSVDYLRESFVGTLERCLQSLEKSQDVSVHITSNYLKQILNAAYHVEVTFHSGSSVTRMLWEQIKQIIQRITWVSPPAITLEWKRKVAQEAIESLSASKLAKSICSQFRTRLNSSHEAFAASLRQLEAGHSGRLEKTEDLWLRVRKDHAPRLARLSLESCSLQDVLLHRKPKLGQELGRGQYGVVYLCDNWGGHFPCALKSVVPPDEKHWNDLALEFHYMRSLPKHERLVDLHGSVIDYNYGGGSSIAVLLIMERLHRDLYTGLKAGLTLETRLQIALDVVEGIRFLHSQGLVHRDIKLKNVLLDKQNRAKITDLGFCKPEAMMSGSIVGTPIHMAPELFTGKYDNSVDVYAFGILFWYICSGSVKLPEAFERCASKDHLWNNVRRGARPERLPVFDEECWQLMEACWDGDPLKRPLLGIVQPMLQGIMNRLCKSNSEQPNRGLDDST
# [3] = target: Serine/threonine-protein kinase Nek7 (Homo sapiens) (UniProt Q8TDX7); experiment: Selectivity interaction (KinomeScan (DiscoverX)) EUB0000666a NEK7
# [4] = target: T2, Serine/threonine-protein kinase ULK1 (Homo sapiens) (UniProt O75385); experiment: Selectivity interaction (KinomeScan (DiscoverX)) EUB0000666a ULK1
# T2 sequence (whole entry): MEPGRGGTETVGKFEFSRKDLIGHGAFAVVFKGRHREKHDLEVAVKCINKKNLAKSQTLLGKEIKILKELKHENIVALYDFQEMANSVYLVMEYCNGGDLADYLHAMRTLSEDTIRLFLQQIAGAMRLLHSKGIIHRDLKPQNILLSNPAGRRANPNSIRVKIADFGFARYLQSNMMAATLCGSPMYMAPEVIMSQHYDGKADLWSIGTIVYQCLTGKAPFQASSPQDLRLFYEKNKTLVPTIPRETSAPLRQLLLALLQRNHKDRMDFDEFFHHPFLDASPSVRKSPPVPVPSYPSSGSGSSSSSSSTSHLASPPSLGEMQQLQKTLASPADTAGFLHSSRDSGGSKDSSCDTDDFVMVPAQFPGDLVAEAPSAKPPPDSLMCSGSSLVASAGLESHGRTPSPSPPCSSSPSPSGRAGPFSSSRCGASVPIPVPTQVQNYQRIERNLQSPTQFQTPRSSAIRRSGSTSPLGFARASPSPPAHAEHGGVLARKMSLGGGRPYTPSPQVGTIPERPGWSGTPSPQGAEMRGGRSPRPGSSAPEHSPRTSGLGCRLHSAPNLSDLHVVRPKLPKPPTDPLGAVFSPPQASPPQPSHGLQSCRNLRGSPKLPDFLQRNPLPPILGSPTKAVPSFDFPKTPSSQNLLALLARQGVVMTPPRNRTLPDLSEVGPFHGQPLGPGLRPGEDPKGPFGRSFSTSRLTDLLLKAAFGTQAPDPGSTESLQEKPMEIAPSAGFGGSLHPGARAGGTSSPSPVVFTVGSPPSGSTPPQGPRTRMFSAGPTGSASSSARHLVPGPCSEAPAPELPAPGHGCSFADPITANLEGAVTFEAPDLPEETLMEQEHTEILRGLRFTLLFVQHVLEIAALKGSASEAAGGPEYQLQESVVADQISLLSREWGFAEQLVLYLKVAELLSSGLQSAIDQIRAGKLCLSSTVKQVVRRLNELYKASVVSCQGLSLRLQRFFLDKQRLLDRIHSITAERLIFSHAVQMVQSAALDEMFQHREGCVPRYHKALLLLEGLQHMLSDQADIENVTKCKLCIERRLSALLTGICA
# [5] = target: T3, Mitogen-activated protein kinase kinase kinase 12 (Homo sapiens) (UniProt Q12852); experiment: Selectivity interaction (KinomeScan (DiscoverX)) EUB0000607a MAP3K12
# T3 sequence (whole entry): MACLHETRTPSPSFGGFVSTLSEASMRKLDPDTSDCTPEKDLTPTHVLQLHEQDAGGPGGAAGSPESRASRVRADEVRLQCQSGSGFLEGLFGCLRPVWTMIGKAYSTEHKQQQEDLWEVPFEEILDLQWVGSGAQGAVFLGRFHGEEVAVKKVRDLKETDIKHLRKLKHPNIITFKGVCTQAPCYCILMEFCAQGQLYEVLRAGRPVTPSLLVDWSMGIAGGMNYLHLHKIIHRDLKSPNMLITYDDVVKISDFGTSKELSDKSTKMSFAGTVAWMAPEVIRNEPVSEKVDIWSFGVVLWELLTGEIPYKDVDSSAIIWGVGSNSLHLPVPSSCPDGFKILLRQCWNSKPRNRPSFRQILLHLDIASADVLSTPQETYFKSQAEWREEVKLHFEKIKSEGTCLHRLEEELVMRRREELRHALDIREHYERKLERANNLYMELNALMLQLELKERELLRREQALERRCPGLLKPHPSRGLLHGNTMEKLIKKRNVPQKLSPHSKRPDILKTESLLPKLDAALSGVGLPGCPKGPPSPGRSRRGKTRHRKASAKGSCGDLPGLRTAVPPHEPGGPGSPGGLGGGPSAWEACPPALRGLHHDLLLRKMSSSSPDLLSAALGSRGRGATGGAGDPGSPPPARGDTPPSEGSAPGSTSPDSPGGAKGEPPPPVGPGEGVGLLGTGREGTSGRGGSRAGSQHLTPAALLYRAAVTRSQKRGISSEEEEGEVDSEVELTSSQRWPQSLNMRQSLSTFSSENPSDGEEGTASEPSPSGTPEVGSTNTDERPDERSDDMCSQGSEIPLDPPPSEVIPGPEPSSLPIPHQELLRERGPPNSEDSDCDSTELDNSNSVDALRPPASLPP
# [6] = target: Phosphatidylinositol 4-phosphate 5-kinase type-1 gamma (Homo sapiens) (UniProt O60331); experiment: Selectivity interaction (KinomeScan (DiscoverX)) EUB0000618a PIP5K1C
# Sequence of Phosphatidylinositol 4-phosphate 5-kinase type-1 gamma (Homo sapiens) (O60331 whole entry): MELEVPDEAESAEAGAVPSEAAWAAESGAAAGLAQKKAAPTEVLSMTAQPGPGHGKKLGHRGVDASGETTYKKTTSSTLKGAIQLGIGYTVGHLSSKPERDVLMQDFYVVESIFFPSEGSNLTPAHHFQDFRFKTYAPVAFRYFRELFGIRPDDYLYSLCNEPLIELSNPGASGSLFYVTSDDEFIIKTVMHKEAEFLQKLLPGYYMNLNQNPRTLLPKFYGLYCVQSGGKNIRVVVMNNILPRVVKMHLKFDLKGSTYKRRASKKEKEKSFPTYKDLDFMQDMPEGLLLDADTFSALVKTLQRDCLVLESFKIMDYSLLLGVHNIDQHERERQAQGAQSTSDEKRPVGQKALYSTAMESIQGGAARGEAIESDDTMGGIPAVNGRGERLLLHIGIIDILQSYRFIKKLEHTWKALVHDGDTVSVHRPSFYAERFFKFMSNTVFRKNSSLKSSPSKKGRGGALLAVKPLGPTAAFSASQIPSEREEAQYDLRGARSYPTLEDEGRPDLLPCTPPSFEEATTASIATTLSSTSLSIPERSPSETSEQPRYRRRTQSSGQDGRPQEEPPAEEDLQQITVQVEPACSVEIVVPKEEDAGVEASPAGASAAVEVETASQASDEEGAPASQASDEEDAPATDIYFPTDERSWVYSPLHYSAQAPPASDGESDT
# Sequence of Cyclin-dependent kinase-like 1 (Homo sapiens) (Q00532 whole entry): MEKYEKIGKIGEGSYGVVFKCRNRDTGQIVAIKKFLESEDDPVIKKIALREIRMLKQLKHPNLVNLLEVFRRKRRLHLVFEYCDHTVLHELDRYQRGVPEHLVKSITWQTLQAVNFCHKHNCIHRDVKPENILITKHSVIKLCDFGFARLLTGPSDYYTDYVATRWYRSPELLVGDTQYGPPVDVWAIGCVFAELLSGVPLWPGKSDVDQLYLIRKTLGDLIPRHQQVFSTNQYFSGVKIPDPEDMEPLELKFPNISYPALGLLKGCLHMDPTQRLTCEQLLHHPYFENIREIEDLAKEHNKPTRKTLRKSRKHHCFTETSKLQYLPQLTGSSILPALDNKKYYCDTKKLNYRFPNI
# Sequence of Serine/threonine-protein kinase Nek7 (Homo sapiens) (Q8TDX7 whole entry, looked up): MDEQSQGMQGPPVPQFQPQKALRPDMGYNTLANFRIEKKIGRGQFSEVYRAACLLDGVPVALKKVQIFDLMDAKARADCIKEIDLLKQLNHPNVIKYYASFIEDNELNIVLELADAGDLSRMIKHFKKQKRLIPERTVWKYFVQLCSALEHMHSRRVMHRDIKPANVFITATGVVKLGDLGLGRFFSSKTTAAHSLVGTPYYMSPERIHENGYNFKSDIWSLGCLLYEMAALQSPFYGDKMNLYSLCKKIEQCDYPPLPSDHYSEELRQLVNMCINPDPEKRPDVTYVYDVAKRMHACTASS
structure (smiles),measurement,setting,value
CCC(=O)N1CCN(c2ccc(-n3c(=O)ccc4cnc5ccc(-c6cnc7ccccc7c6)cc5c43)cc2C(F)(F)F)CC1,% of control,[1],100%
CN(C)CCOc1ccc(-c2nc(-c3ccncc3)c(-c3ccc4c(c3)CC/C4=N\O)[nH]2)cc1,% of control,[2],83%
O=C(NOC[C@H](O)CO)c1ccc(F)c(F)c1Nc1ccc(I)cc1F,% of control,[3],95%
same,% of control,[4],100%
CNC(=O)Nc1ccc(-c2nc(N3CC4CCC(C3)O4)c3cnn(C4CCC5(CC4)OCCO5)c3n2)cc1,% of control,[5],93%
O[C@H]1CC[C@H](Nc2ncc3nc(Nc4c(F)cc(F)cc4F)n([C@H]4CCOC4)c3n2)CC1,% of control,[6],76%
